From article PMC4207412, “Secondary Structural Preferences of Some Antibacterial Cyclooctapeptides in the Presence of Calcium(II)” (International Journal of Medicinal Chemistry, 2012)
Like-named read-outs stand apart in the source and are kept apart here. Square brackets hold non-standard residues; d marks the D form. Peptide text beside a SMILES is read from it.

Columns and labels:
[1] = test system: Escherichia coli ATCC 25922; format: cell-based
Protocol: (§1) Microbiological studies were performed on Escherichia coli ATCC 25922 and Staphylococcus aureus ATCC 10566 (American Type Culture Collection (ATCC), Rockville, MD, USA) using carefully standardized conditions. A suspension of the bacteria (in exponential phase of growth) was prepared and then diluted to yield a final concentration of approximately 1 × 10^5 colony forming units (cfu) per milliliter. Stock peptides were dissolved in 9% sucrose solutions containing 5% dimethyl sulfoxide. The 96-well microtiter tray containing the bacterial cultures and peptides was incubated for 18 hrs at 35°C. […] All tests were conducted in triplicate and the reported MIC values were derived from at least three independent experiments.
(§2) COP 4–9 were then designed to include a glutamyl residue to reduce the overall cationic charges on these amphipathic cyclopeptides. […] A lysine residue in COP 4 was sequentially substituted with histidine in COP 5, cysteine in COP 6, and leucine in COP 7. […] As the net positive charges of the cyclopeptide decreased, antimicrobial activity decreased by fourfold (see COP 6). […] The decreasing antimicrobial activities of these cyclopeptides could be attributed to their diminishing cationic character and an inadequate balance of amphipathic residues in their sequences. These structurally similar cyclopeptides (COP 1–9) were subsequently evaluated for calcium(II) binding affinity by ITC and assessed for conformational changes upon calcium(II) binding by circular dichroism (CD).

[2] = test system: Staphylococcus aureus ATCC 10566; format: cell-based
Protocol: as §1, §2

[3] = Isothermal titration calorimetry of Ca2+ binding in 10% acetonitrile in water; details: ITC, 30°C, no DPC, peptide 0.15 or 0.30 mM, Ca(ClO4)2 9 to 15 mM in syringe, one-site model, mean of three experiments ± standard error mean
Protocol: (§3) Microcalorimetric titrations of peptides with metal ions were conducted by isothermal titration microcalorimetry (ITC) using a Microcal VP-ITC Instrument (Northampton, MA, USA). Experiments were carried out at 30°C in 10% acetonitrile in water. The peptide concentration was 0.15 or 0.30 mM (1.34 mL sample cell), and the metal ion [Ca(ClO4)2] concentration was varied from 9 to 15 mM in the syringe. Automated titrations were conducted until saturation, up to a Ca^2+/peptide mole ratio of about 12 : 1. Heats of dilution and mixing for each experiment were measured by titrating calcium(II) solution into 10% acetonitrile solution. The effective heat of each peptide and calcium(II) interaction was corrected for dilution and mixing effects by subtracting the enthalpy change derived from the titration of calcium(II) solution into the 10% acetonitrile solution without the peptide. In a similar way, ITC experiments were carried out at 30°C in 10% aqueous acetonitrile containing 10 mM DPC. These heats of bimolecular interactions were obtained by integrating the peak following each injection of calcium(II). The binding isotherms were derived from the raw ITC data following correction for dilution and mixing effects. These isotherms were fitted using the one-site model by a nonlinear least square analysis with Microcal Origin 7.0 software (Microcal Software, Inc., Northampton, MA, USA) to determine the molar enthalpy change for binding, ΔH, and the corresponding binding constant, K b. From these values, the thermodynamic characterization of the interaction at 30°C was determined from the fundamental equations of thermodynamics, ΔG = −RT ln K b and ΔS = (ΔH − ΔG)/T.

[4] = Isothermal titration calorimetry of Ca2+ binding in micellar DPC (10 mM); details: ITC, 30°C, 10% aqueous acetonitrile containing 10 mM micellar DPC; one-site model; mean of three experiments ± standard error mean
Protocol: as §3
In order to mimic the hydrophobic environment of the bacterial membrane that antimicrobial peptides commonly target, the interactions of these cyclopeptides with calcium(II) were also conducted in the presence of micellar dodecylphosphocholine (DPC). […] However, their association is compensated by an increase in entropy (ΔS values range from ca. 42.7 to 66.5 JK^−1 mol^−1). This entropy/enthalpy compensation could be attributed to a greater degree of dehydration of the hydration spheres around the cyclopeptide molecules and calcium ions following complex formation in the hydrophobic micellar DPC environment. However, there is no significant trend in the enthalpy or entropy changes following calcium(II) binding in the presence of micellar DPC.

[5] = Mueller-Hinton microbroth dilution, ca. 1 × 10^5 cfu/mL, 18 hrs at 35°C, visual turbidity, range tested 256 to 2 μg/mL, triplicate, at least three independent experiments

E. coli ATCC 25922 MIC [1, 5] [mg/L] | S. aureus ATCC 10566 MIC [2, 5] [mg/L] | Binding affinity for Ca^2+ K b [3] | E. coli ATCC 25922 MIC ([1]; ATCC 25922, 18 h) [mg/L] | S. aureus ATCC 10566 MIC ([2]; ATCC 10566, 18 h) [mg/L] | Binding affinity for Ca^2+ K b [4] | Structure (SMILES)
16 | 8 | (3.4 ± 0.6) × 10^3 M^−1 | – | – | – | CC(C)C[C@@H]1NC(=O)[C@@H](CCCCN)NC(=O)[C@H](CCCCN)NC(=O)[C@@H](CCCCN)NC(=O)[C@H](CCCCN)NC(=O)[C@@H](CC(C)C)NC(=O)[C@H](CC(C)C)NC(=O)[C@@H](CC(C)C)NC1=O [COP 1] (cyclo(K[dK]K[dK]L[dL]L[dL]))
16 | 8 | (4.8 ± 1.3) × 10^3 M^−1 | – | – | – | CC(C)C[C@@H]1NC(=O)[C@@H](CC(C)C)NC(=O)[C@H](CC(C)C)NC(=O)[C@@H](CCCCN)NC(=O)[C@H](CCCCN)NC(=O)[C@@H](CCCCN)NC(=O)[C@H](CCCCN)NC(=O)[C@@H](Cc2c[nH]c3ccccc23)NC1=O [COP 2] (cyclo(K[dK]K[dK]L[dL]L[dW]))
– | – | (7.9 ± 2.8) × 10^3 M^−1 | 16 | 16 | (3.3 ± 0.3) × 10^3 M^−1 | CC(C)C[C@@H]1NC(=O)[C@@H](CC(C)C)NC(=O)[C@H](CCCCN)NC(=O)[C@@H](CCCCN)NC(=O)[C@H](CCCCN)NC(=O)[C@@H](CCCCN)NC(=O)[C@H](CS)NC(=O)[C@@H](CC(C)C)NC1=O [COP 3] (cyclo(C[dK]K[dK]K[dL]L[dL]))
– | – | (5.3 ± 1.4) × 10^3 M^−1 | 32 | 128 | (5.4 ± 0.6) × 10^3 M^−1 | CC(C)C[C@@H]1NC(=O)[C@@H](CC(C)C)NC(=O)[C@H](CCC(=O)O)NC(=O)[C@@H](CCCCN)NC(=O)[C@H](CCCCN)NC(=O)[C@@H](CCCCN)NC(=O)[C@H](Cc2c[nH]cn2)NC(=O)[C@@H](CC(C)C)NC1=O [COP 5] (cyclo(E[dL]L[dL]H[dK]K[dK]))
– | – | (6.4 ± 2.8) × 10^3 M^−1 | 128 | 128 | (4.9 ± 0.7) × 10^3 M^−1 | CC(C)C[C@@H]1NC(=O)[C@@H](CC(C)C)NC(=O)[C@H](CCC(=O)O)NC(=O)[C@@H](CCCCN)NC(=O)[C@H](CCCCN)NC(=O)[C@@H](CCCCN)NC(=O)[C@H](CS)NC(=O)[C@@H](CC(C)C)NC1=O [COP 6] (cyclo(C[dK]K[dK]E[dL]L[dL]))
– | – | (8.0 ± 1.2) × 10^3 M^−1 | >256 | >256 | (4.7 ± 1.0) × 10^3 M^−1 | CC(C)C[C@@H]1NC(=O)[C@@H](CC(C)C)NC(=O)[C@H](CC(C)C)NC(=O)[C@@H](CC(C)C)NC(=O)[C@H](CCC(=O)O)NC(=O)[C@@H](CCCCN)NC(=O)[C@H](CCCCN)NC(=O)[C@@H](CCCCN)NC1=O [COP 7] (cyclo(E[dL]L[dL]L[dK]K[dK]))
– | – | (4.9 ± 0.3) × 10^3 M^−1 | >256 | >256 | (4.4 ± 0.02) × 10^3 M^−1 | CC(C)C[C@@H]1NC(=O)[C@@H](CC(C)C)NC(=O)[C@H](CCC(=O)O)NC(=O)[C@@H](CCCCN)NC(=O)[C@H](Cc2c[nH]cn2)NC(=O)[C@@H](CCCCN)NC(=O)[C@H](Cc2c[nH]cn2)NC(=O)[C@@H](CC(C)C)NC1=O [COP 8] (cyclo(E[dL]L[dL]H[dK]H[dK]))
– | – | (5.4 ± 1.2) × 10^3 M^−1 | >256 | >256 | (4.1 ± 0.03) × 10^3 M^−1 | CC(C)C[C@@H]1NC(=O)[C@@H](CC(C)C)NC(=O)[C@H](CCC(=O)O)NC(=O)[C@@H](CCCCN)NC(=O)[C@H](CCCCN)NC(=O)[C@@H](CCCCN)NC(=O)[C@H](CCC(=O)O)NC(=O)[C@@H](CC(C)C)NC1=O [COP 9] (cyclo(E[dK]K[dK]E[dL]L[dL]))

Structure (SMILES) | E. coli ATCC 25922 MIC [1, 5] [mg/L] | S. aureus ATCC 10566 MIC [2, 5] [mg/L] | Binding affinity for Ca^2+ K b [3] | E. coli ATCC 25922 MIC ([1]; ATCC 25922, 18 h) [mg/L] | S. aureus ATCC 10566 MIC ([2]; ATCC 10566, 18 h) [mg/L] | Binding affinity for Ca^2+ K b [4]
CC(C)C[C@@H]1NC(=O)[C@@H](CC(C)C)NC(=O)[C@H](CCC(=O)O)NC(=O)[C@@H](CCCCN)NC(=O)[C@H](CCCCN)NC(=O)[C@@H](CCCCN)NC(=O)[C@H](CCCCN)NC(=O)[C@@H](CC(C)C)NC1=O [COP 4] (cyclo(E[dL]L[dL]K[dK]K[dK])) | 16 | 32 | (3.1 ± 0.7) × 10^3 M^−1 | – | – | (4.7 ± 1.1) × 10^3 M^−1
